This test concerns distal colitis induced via intracolonic injection of DNBS. As to the kind of experiment: DNBS-induced distal colitis animal test. Format: in vivo, Male Wistar mice. Conditions: 2 CAP qd × 7, PO, sacrificed at Day 8. As for the experimental part: […] were starved for 24 hr, and distal colitis was induced via intracolonic injection of DNBS (2,4-dinitrobenzene sulfonic acid, 30 mg in 0.5 mL ethanol (30%)). Then, 2 mL air was injected after instillation of the enema to ensure the solution was remained in the colon. The test substance (the pharmaceutical composition of Embodiment 3-1) and mesalamine were oral administered 24 hr and 2 hr prior to the DNBS injection, followed by administering one dose a day, and 5 days. The total doses of the test substance and mesalamine were 7 doses. The body weight, fecal occult blood and fecal consistency were recorded every day during the experiment. The animals were sacrificed at Day 8. The adhesions of colon and other organs were observed after abdominal opening, the colitis still can be observed, and the colon was carried out and weighted.

Structures are written as SMILES.

`Nc1ccc(O)c(C(=O)O)c1` [Mesalamine, mesalamine] returned an Adhesion of 0.0 ± 0.0, a Colon width of 1.0 ± 0.0, a Strictures of 2.6 ± 0.2 and a Ulcers/Inflammation of 3.2 ± 0.54.

The values are drawn from patent US10940113B2, “Pharmaceutical composition for colon targeting, method for treating a colon-related disease using the same and preparation method thereof” (priority 2017, dated 2021).
